According to US5385927A, “Hydroxy-3-[1-(1H-imidazol-4-yl)alkyl]-benzenecarboximidamides and their use in treating glaucoma” (priority 1993, dated 1995):
pIC50: −log10 of the molar value. Like-named read-outs stand apart in the source and are kept apart here.

Experiments:
[1] = test system: male NMRI mice; assay: Toxicity by means of Irwin's test, intraperitoneal; assay type: in vivo, mouse (NMRI); conditions: death of two out of three animals within 24 hours
Procedure: The toxicity of the compounds according to the present invention has been determined in male NMRI mice by means of Irwin's test (S. IRWIN, Psychopharmacologia, 13, (1968), 222-257). Progressive doses of the compound to be tested are administered intraperitoneally to groups of three mice until the lethal dose is reached (dose which causes the death of two out of three animals within 24 hours).
It can be seen from this Table that the compounds of the invention have a very low toxicity.

[2] = test system: intraocular pressure of the treated eye; assay: Intraocular pressure variation in awake normotensive rabbits, treated eye; assay type: in vivo, rabbit (New Zealand White)
Procedure: the 1st column indicates the compound tested,
the 2nd column indicates the concentration of the compound, in percent (in weight per volume),
the 3rd, 4th, 5th, 6th and 7th columns indicate the variation in intraocular pressure (ΔP) expressed in percent, with respect to an animal treated with a collyrium containing no compound to be tested, measured after 30 minutes, 1, 2, 3 or 6 hours respectively.

[3] = test system: presynaptic α2-adrenergic receptor (guinea-pig ileum); assay: Inhibition of the contraction of the isolated guinea-pig ileum induced by electrical stimulation (presynaptic α2-adrenergic agonist properties); conditions: for pIC50: concentration that reduces by 50% the intensity of the muscle contraction, electrical stimulation
Text: Stimulation of the guinea-pig ileum.
Longitudinal muscle fragments attached to an isometric force indicator are immersed in Tyrode's solution and are stretched with a force of 1 g (G. M. DREW, Brit. J. Pharmacol. 64, (1978), 293-300; M. ANDREJAK et al., Naunyn-Schmiedeberg's Arch. Pharmacol. 314, (1980), 83-87).
Electrical stimulation of the parasympathetic nerves associated with the ileum fragments causes a contraction of the muscle. This contraction is reduced in the presence of a presynaptic α2 -agonist and the magnitude by which the contraction is reduced depends on the concentration of the agonist used. This effect is antagonized by the simultaneous presence of an α2 -antagonist such as α-yohimbine.
The compounds to be studied have been tested at increasing concentrations ranging from 10^-10 to 10^-3 mole/l. The concentration (IC50 in mole/l) that reduces by 50% the intensity of the muscle contraction is determined.
Table I gives the IC50 concentrations (in mole/l) obtained for the compounds of the invention (except for compound 6, for which compound the IC30 concentration is given).

[4] = test system: mucous membrane of the treated eye (conjunctivae); assay: Effect on the mucous membrane of the treated eye (hypohemia); assay type: in vivo, rabbit (New Zealand White)
Text: Hypohemia manifests itself by insufficient blood irrigation of the conjunctiva, which can result in irreversible local ischemias.

[5] = background of the patent, cited from earlier work
[6] = test system: pupil diameter; assay: Effect on the pupil diameter of the treated eye and of the contralateral eye; conditions: clonidine: ipsilateral eye at 0.1 and 0.5%; compounds of the invention: treated or contralateral eye at doses of Table II
Procedure: The pupil diameters are measured visually at the point of maximal vertical diameter, using a millimetric metal standard.

[7] = test system: intraocular pressure of the contralateral eye
Procedure: All the doses tested are administered to three rabbits (weight 2-2.5 kg) of both sexes according to a "cross-over" experimental protocol in which each animal is also used in the control group. […] The intraocular pressure is measured tonometrically with a BIORAD pneumatonograph (DIGILAB MODULAR ONE) after local anesthesia using 2 drops of a 0.4% (in weight per volume) solution of oxybuprocaine hydrochloride.

[8] = test system: heart rate
Procedure: The compounds to be studied are administered as a solution in 30 microliters of sterile distilled water (collyrium) at concentrations ranging from 0 (reference) to 0.5% (in weight per volume).

[9] = ocular or topical use unless stated

CC(c1c[nH]cn1)c1cccc(C(=N)N)c1O (single isomer, unassigned; (+)) [D, (+)-2-hydroxy-3-[1-(1H-imidazol-4-yl)ethyl]-benzenecarboximidamide]
Lethal dose [1]: 25 mg/kg | ΔP [30 min], variation in intraocular pressure ([2]; 0.01% w/v): -14.1% | ΔP [2 h], variation in intraocular pressure ([2]; 0.01% w/v): -17.7% | ΔP [6 h], variation in intraocular pressure ([2]; 0.01% w/v): -15.1% | pIC50 [3]: 8.41

CC(c1c[nH]cn1)c1cccc(C(=N)N)c1O (single isomer, unassigned; (-)) [E, (-)-2-hydroxy-3-[1-(1H-imidazol-4-yl)ethyl]-benzenecarboximidamide]
Lethal dose [1]: 248 mg/kg | Hypohemia of the treated eye ([4]; 0.5%): do not induce hypohemia | ΔP [30 min], variation in intraocular pressure ([2]; 0.5% w/v): -11.6% | ΔP [1 h], variation in intraocular pressure ([2]; 0.5% w/v): -12.6% | ΔP [6 h], variation in intraocular pressure ([2]; 0.5% w/v): -6.6% | pIC50 [3]: 6.70

N=C(N)c1cccc(Cc2c[nH]cn2)c1O [A, 2-hydroxy-3-(1H-imidazol-4-ylmethyl)-benzenecarboximidamide]
Lethal dose [1]: > 216 mg/kg | Hypohemia of the treated eye ([4]; 0.1%): do not induce hypohemia | ΔP [30 min], variation in intraocular pressure ([2]; 0.05% w/v): -5.9% | ΔP [2 h], variation in intraocular pressure ([2]; 0.05% w/v): -18.6% | ΔP [6 h], variation in intraocular pressure ([2]; 0.05% w/v): -1.1% | ΔP [30 min], variation in intraocular pressure ([2]; 0.1% w/v): -9.2% | ΔP [2 h], variation in intraocular pressure ([2]; 0.1% w/v): -21.2% | ΔP [6 h], variation in intraocular pressure ([2]; 0.1% w/v): -16.1% | pIC50 [3]: 7.21

CNC(=N)c1cccc(Cc2c[nH]cn2)c1O [B, 2-hydroxy-3-(1H-imidazol-4-ylmethyl)-N-methyl-benzenecarboximidamide]
Lethal dose [1]: 230 mg/kg | ΔP [30 min], variation in intraocular pressure ([2]; 0.5% w/v): -5.5% | ΔP [1 h], variation in intraocular pressure ([2]; 0.5% w/v): -10.8% | ΔP [2 h], variation in intraocular pressure ([2]; 0.5% w/v): -13.3% | ΔP [3 h], variation in intraocular pressure ([2]; 0.5% w/v): -12.8% | ΔP [6 h], variation in intraocular pressure ([2]; 0.5% w/v): -7.6% | pIC50 [3]: 5.60

N=C(NO)c1cccc(Cc2c[nH]cn2)c1O [C, N,2-dihydroxy-3-(1H-imidazol-4-ylmethyl)-benzenecarboximidamide]
Lethal dose [1]: 232 mg/kg | pIC50 [3]: 6.85

CC(C)NC(=N)c1cccc(Cc2c[nH]cn2)c1O [F, 2-hydroxy-3-(1H-imidazol-4-ylmethyl)-N-(1-methylethyl)-benzenecarboximidamide]
Lethal dose [1]: 155 mg/kg | pIC50 [3]: 5.19

N=C(NN)c1cccc(Cc2c[nH]cn2)c1O [G, 2-hydroxy-3-(1H-imidazol-4-ylmethyl)-benzenecarboximidic acid hydrazide]
Lethal dose [1]: 416 mg/kg | IC30, inhibition of the contraction of the guinea-pig ileum ([3]; IC30 printed in the IC50 column): 2500 nM

CC(=O)Nc1nnc(S(N)(=O)=O)s1 [acetazolamide]
Side-effects (in words) ([5]; carbonic anhydrase inhibitors, systemic administration): depression of the central nervous system, weight loss and, mainly, bone marrow hypofunction

Clc1cccc(Cl)c1N=C1NCCN1 [clonidine]
Side-effects (in words) [5, 9]: mydriasis, as well as an initial phase of ocular hypertension (biphasic effect) | Change in the pupil diameter / mydriasis (in words) [6]: causes an important mydriasis of the ipsilateral eye | ΔP in the contralateral eye ([7]; 0.01%, after 2 hours): -9.5% | ΔP in the contralateral eye ([7]; 0.01%, after 6 hours): -9.2% | ΔP in the contralateral eye ([7]; 0.1%, after 2 hours): -10.2% | ΔP in the contralateral eye ([7]; 0.1%, after 6 hours): +2.6% | ΔP in the contralateral eye ([7]; 0.5%, after 2 hours): -26.3% | ΔP in the contralateral eye ([7]; 0.5%, after 6 hours): +15% | Slowing of the heart rate ([8]; 0.01%, after 3 hours): 10.7% | Slowing of the heart rate ([8]; 0.1%, after only 1 hour): 17.9% | Whitening of the conjunctivae ([4]; 0.01%, after 30 minutes): whitening of the conjunctivae is observed after 30 minutes | Whitening of the conjunctivae ([4]; 0.1%, after 1 hour): this effect is still present after 1 hour | Biphasic effect on intraocular pressure (in words) [2]: initially induces hypertension of the treated eye, which effect increases with the concentration of the product | ΔP [30 min], variation in intraocular pressure ([2]; 0.01% w/v): +8.0% | ΔP [2 h], variation in intraocular pressure ([2]; 0.01% w/v): -8.8% | ΔP [6 h], variation in intraocular pressure ([2]; 0.01% w/v): -9.2% | ΔP [30 min], variation in intraocular pressure ([2]; 0.1% w/v): +23.4% | ΔP [2 h], variation in intraocular pressure ([2]; 0.1% w/v): +36.2% | ΔP [3 h], variation in intraocular pressure ([2]; 0.1% w/v): +11.4% | ΔP [30 min], variation in intraocular pressure ([2]; 0.5% w/v): +31.4% | ΔP [2 h], variation in intraocular pressure ([2]; 0.5% w/v): +39.4% | ΔP [3 h], variation in intraocular pressure ([2]; 0.5% w/v): +8.6% | pIC50 [3]: 7.77

CNCC(O)c1ccc(OC(=O)C(C)(C)C)c(OC(=O)C(C)(C)C)c1 (stereo not shown) [dipivalylepinephrine]
Side-effects (in words) [5, 9]: sensations of burning or irritation
